Results reported in article PMC8081208, “Characterization of glutathione S-transferase enzymes in Dictyostelium discoideum suggests a functional role for the GSTA2 isozyme in cell proliferation and development” (PLoS ONE, 2021).

How the values were obtained:
[1] = molecular target: T1, rDdGSTA2 (Dictyostelium discoideum, UniProt Q556G3); assay: CDNB conjugation, absorbance at […] nm, Michaelis-Menten fit; assay type: biochemical; details: saturating GSH; pH 7.5; 25°C
T1 construct: gene gsta2-1
T1 sequence (Q556G3 1-198): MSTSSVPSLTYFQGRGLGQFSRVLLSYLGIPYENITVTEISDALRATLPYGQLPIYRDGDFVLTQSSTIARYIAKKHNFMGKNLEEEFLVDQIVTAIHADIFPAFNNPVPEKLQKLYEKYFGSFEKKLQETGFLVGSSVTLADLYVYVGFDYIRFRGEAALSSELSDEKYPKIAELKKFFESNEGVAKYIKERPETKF

[2] = molecular target: T2, rDdGSTA3 (Dictyostelium discoideum, UniProt Q54VI4); assay: as above; assay type: biochemical; details: saturating GSH; pH 7.5; 25°C
T2 construct: gene gsta3
T2 sequence (Q54VI4 1-204): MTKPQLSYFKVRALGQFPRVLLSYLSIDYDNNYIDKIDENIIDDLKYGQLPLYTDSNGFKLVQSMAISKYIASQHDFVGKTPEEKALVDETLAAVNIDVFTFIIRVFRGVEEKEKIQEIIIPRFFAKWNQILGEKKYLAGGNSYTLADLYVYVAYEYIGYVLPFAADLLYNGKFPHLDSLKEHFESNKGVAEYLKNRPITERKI

O=[N+]([O-])c1ccc(Cl)c([N+](=O)[O-])c1 [CDNB, 1-chloro-2,4-dinitrobenzene]
Km [1]: 1290 ± 200 µM
Km [2]: 562 ± 98.1 µM
